Source: EP1568373A2, “Inducing cellular immune responses to HER2/neu using peptide and nucleic acid compositions” (priority 1999, dated 2001)
pIC50: −log10 of the molar value. Where no end group is shown, it is not given here.

The molecules below were run against A*0101 (Homo sapiens, UniProt P04439, A114D/A174V/A182V/D101N/D185E/E176A/E190D/L180R/Q94H/R68K/S129P/T187R/V100A/V91M/W191G) (assay: HLA class I binding assay, purified HLA molecules, inhibition of 125I-radiolabeled probe peptide). Settings: HLA-A1 Motif-Bearing Peptides, Table XXV.

Molecule | pIC50
CC(C)[C@H](N)C(=O)N[C@H](C(=O)N[C@@H](C)C(=O)N[C@@H](CS)C(=O)N1CCC[C@H]1C(=O)N[C@@H](Cc1ccc(O)cc1)C(=O)N[C@@H](CC(N)=O)C(=O)N[C@@H](Cc1ccc(O)cc1)C(=O)O)[C@@H](C)O [Her2/neu.296] | 6.60
ETHLDMLRHLY [Her2/neu.40] | 7.05
ETMPNPEGRY [Her2/neu.280.T2] | 8.41
GTDLFEDNY [Her2/neu.104.D3] | 9.05
GTDMKLRLPY [Her2/neu.28.Y10] | 7.30
HTDMLRHLY [Her2/neu.42.T2] | 8.72
VFETLEEITGY [Her2/neu.399] | 5.26

Each molecule was assayed against DRB1*0101 (DR1) (Homo sapiens, UniProt P01903+P01911, A100R/D57E/F55L/F60I/F76Y/I96L/L162R/M171V/P40L/Q125E/R42F/V115G/Y59C) (assay: HLA class II binding assay, purified HLA molecules). Settings: Her2/neu DR supertype primary binding, Table XXVIII.

Molecule | pIC50
CC(C)C[C@H](NC(=O)[C@H](C)NC(=O)[C@H](Cc1ccc(O)cc1)NC(=O)[C@H](CC(N)=O)NC(=O)[C@H](CC(=O)O)NC(=O)[C@H](CCC(=O)O)NC(=O)[C@H](Cc1ccccc1)NC(=O)[C@H](CC(C)C)NC(=O)[C@H](CCC(N)=O)NC(=O)[C@@H](N)[C@@H](C)O)C(=O)N[C@@H](C)C(=O)N[C@H](C(=O)N[C@@H](CC(C)C)C(=O)N[C@@H](CC(=O)O)C(=O)N[C@@H](CC(N)=O)C(=O)O)C(C)C [Her2/neu.105] | 7.03
CC[C@H](C)[C@H](NC(=O)[C@H](CCCCN)NC(=O)[C@H](CCCCN)NC(=O)[C@@H](N)CS)C(=O)N[C@@H](Cc1ccccc1)C(=O)NCC(=O)N[C@@H](CO)C(=O)N[C@@H](CC(C)C)C(=O)N[C@@H](C)C(=O)N[C@@H](Cc1ccccc1)C(=O)N[C@@H](CC(C)C)C(=O)N1CCC[C@H]1C(=O)N[C@@H](CCC(=O)O)C(=O)N[C@@H](CO)C(=O)N[C@@H](Cc1ccccc1)C(=O)O [Her2/neu.367] | 7.68
CC[C@H](C)[C@H](NC(=O)CNC(=O)[C@@H](NC(=O)[C@@H](NC(=O)[C@H](C)NC(=O)[C@H](CO)NC(=O)[C@@H](NC(=O)[C@@H](NC(=O)[C@H](CO)NC(=O)[C@@H](NC(=O)[C@H](CC(C)C)NC(=O)[C@@H]1CCCN1C(=O)[C@H](CO)NC(=O)[C@H](C)N)[C@@H](C)O)[C@@H](C)CC)[C@@H](C)CC)C(C)C)C(C)C)C(=O)N[C@@H](CC(C)C)C(=O)O [Her2/neu.648] | 7.25
CC[C@H](C)[C@H](NC(=O)CNC(=O)[C@@H](NC(=O)[C@@H](NC(=O)[C@H](C)NC(=O)[C@H](CO)NC(=O)[C@@H](NC(=O)[C@@H](NC(=O)[C@H](CO)NC(=O)[C@@H](NC(=O)[C@@H](N)CC(C)C)[C@@H](C)O)[C@@H](C)CC)[C@@H](C)CC)C(C)C)C(C)C)C(=O)N[C@@H](CC(C)C)C(=O)N[C@@H](CC(C)C)C(=O)N[C@H](C(=O)N[C@H](C(=O)O)C(C)C)C(C)C [Her2/neu.651] | 7.59
CC[C@H](C)[C@H](NC(=O)[C@H](C)NC(=O)[C@@H](NC(=O)[C@@H]1CCCN1C(=O)[C@@H](NC(=O)[C@H](CCCCN)NC(=O)[C@@H](NC(=O)[C@H](CC(N)=O)NC(=O)[C@H](CCC(=O)O)NC(=O)CN)C(C)C)[C@@H](C)CC)C(C)C)C(=O)N[C@@H](CCCCN)C(=O)N[C@H](C(=O)N[C@@H](CC(C)C)C(=O)N[C@@H](CCCNC(=N)N)C(=O)N[C@@H](CCC(=O)O)C(=O)O)C(C)C [Her2/neu.743] | 7.10
CSCC[C@H](NC(=O)[C@H](CC(C)C)NC(=O)[C@H](CCC(N)=O)NC(=O)[C@@H](NC(=O)[C@@H](NC(=O)[C@H](CC(C)C)NC(=O)[C@H](CCC(N)=O)NC(=O)[C@@H](NC(=O)[C@@H](N)[C@@H](C)O)C(C)C)C(C)C)[C@@H](C)O)C(=O)N1CCC[C@H]1C(=O)N[C@@H](Cc1ccc(O)cc1)C(=O)NCC(=O)N[C@@H](CS)C(=O)N[C@@H](CC(C)C)C(=O)N[C@@H](CC(C)C)C(=O)O [Her2/neu.793] | 7.66
CC[C@H](C)[C@H](NC(=O)[C@H](CCC(N)=O)NC(=O)[C@H](CCSC)NC(=O)[C@H](CS)NC(=O)[C@H](Cc1c[nH]c2ccccc12)NC(=O)[C@H](CC(N)=O)NC(=O)[C@H](CC(C)C)NC(=O)[C@@H](N)CC(C)C)C(=O)N[C@@H](C)C(=O)N[C@@H](CCCCN)C(=O)NCC(=O)N[C@@H](CCSC)C(=O)N[C@@H](CO)C(=O)N[C@@H](Cc1ccc(O)cc1)C(=O)N[C@@H](CC(C)C)C(=O)O [Her2/neu.822] | 8.22
CC[C@H](C)[C@H](NC(=O)CNC(=O)[C@H](CC(=O)O)NC(=O)[C@H](Cc1ccc(O)cc1)NC(=O)[C@@H]1CCCN1C(=O)[C@H](CCCCN)NC(=O)[C@H](C)NC(=O)CNC(=O)[C@H](Cc1ccccc1)NC(=O)[C@@H](NC(=O)[C@H](CCSC)NC(=O)[C@H](CC(C)C)NC(=O)[C@H](CCC(=O)O)NC(=O)[C@H](Cc1c[nH]c2ccccc12)NC(=O)[C@@H](N)C(C)C)[C@@H](C)O)C(=O)O [Her2/neu.912] | 7.24
DMKLRLPASPETHLD [Her2/neu.30] | 5.30
ETELVEPLTPSGAMP [Her2/neu.693] | 6.08
ITDFGLARLLDIDET [Her2/neu.861] | 5.98
LLVVVLGVVFGILIK [Her2/neu.662] | < 5.20
QPDVRPQPPSPREGP [Her2/neu.1142] | 5.15
VEPLTPSGAMPNQAQ [Her2/neu.697] | < 5.20

These molecules were tested against DRB1*0701 (DR7) (Homo sapiens, UniProt P01903+P01911, A100R/A102G/A103Q/D57E/D86V/E43K/F76Y/K127E/L162R/M171V/P40G/Q125H/Q99D/R33Q/R42Y/R54Q/S133A/S66F/T210M/V115G/Y107V/Y59L/Y89S) (assay: HLA class II binding assay, purified HLA molecules). Settings: Her2/neu DR supertype primary binding, Table XXVIII.

Molecule | pIC50
CC(C)C[C@H](NC(=O)[C@H](C)NC(=O)[C@H](Cc1ccc(O)cc1)NC(=O)[C@H](CC(N)=O)NC(=O)[C@H](CC(=O)O)NC(=O)[C@H](CCC(=O)O)NC(=O)[C@H](Cc1ccccc1)NC(=O)[C@H](CC(C)C)NC(=O)[C@H](CCC(N)=O)NC(=O)[C@@H](N)[C@@H](C)O)C(=O)N[C@@H](C)C(=O)N[C@H](C(=O)N[C@@H](CC(C)C)C(=O)N[C@@H](CC(=O)O)C(=O)N[C@@H](CC(N)=O)C(=O)O)C(C)C [Her2/neu.105] | 5.81
CSCC[C@H](NC(=O)[C@H](CC(C)C)NC(=O)[C@H](CCC(N)=O)NC(=O)[C@@H](NC(=O)[C@@H](NC(=O)[C@H](CC(C)C)NC(=O)[C@H](CCC(N)=O)NC(=O)[C@@H](NC(=O)[C@@H](N)[C@@H](C)O)C(C)C)C(C)C)[C@@H](C)O)C(=O)N1CCC[C@H]1C(=O)N[C@@H](Cc1ccc(O)cc1)C(=O)NCC(=O)N[C@@H](CS)C(=O)N[C@@H](CC(C)C)C(=O)N[C@@H](CC(C)C)C(=O)O [Her2/neu.793] | 5.60
CC[C@H](C)[C@H](NC(=O)[C@H](CCC(N)=O)NC(=O)[C@H](CCSC)NC(=O)[C@H](CS)NC(=O)[C@H](Cc1c[nH]c2ccccc12)NC(=O)[C@H](CC(N)=O)NC(=O)[C@H](CC(C)C)NC(=O)[C@@H](N)CC(C)C)C(=O)N[C@@H](C)C(=O)N[C@@H](CCCCN)C(=O)NCC(=O)N[C@@H](CCSC)C(=O)N[C@@H](CO)C(=O)N[C@@H](Cc1ccc(O)cc1)C(=O)N[C@@H](CC(C)C)C(=O)O [Her2/neu.822] | 6.68
CSCC[C@H](NC(=O)[C@H](CC(C)C)NC(=O)[C@H](CCC(=O)O)NC(=O)[C@H](Cc1c[nH]c2ccccc12)NC(=O)[C@@H](NC(=O)[C@@H](NC(=O)[C@@H](NC(=O)CN)C(C)C)[C@@H](C)O)C(C)C)C(=O)N[C@H](C(=O)N[C@@H](Cc1ccccc1)C(=O)NCC(=O)N[C@@H](C)C(=O)N[C@@H](CCCCN)C(=O)N1CCC[C@H]1C(=O)N[C@@H](Cc1ccc(O)cc1)C(=O)O)[C@@H](C)O [Her2/neu.909] | 5.83

The molecules below were run against A*2402 (Homo sapiens, UniProt P04439, D101N/D140Y/D185E/E176V/E190D/F33S/G103R/G107R/I119L/I121M/I306V/K335N/L105A/L180Q/L300P/N151K/N90K/Q86E/Q94H/R106L/R138H/R89G/T104I/T345S/V100E/W191G/Y123F) (assay: HLA class I binding assay, purified HLA molecules). Settings: HLA-A24 Motif-Bearing Peptides, Table XXVI.

Molecule | pIC50
CC[C@H](C)[C@H](NC(=O)[C@@H]1CCCN1C(=O)[C@H](CCSC)NC(=O)[C@H](Cc1ccc(O)cc1)NC(=O)[C@@H](N)CO)C(=O)N[C@@H](Cc1c[nH]c2ccccc12)C(=O)N[C@@H](CCCCN)C(=O)N[C@@H](Cc1ccccc1)C(=O)O [Her2/neu.609] | 7.42
AYPDSLPDF [Herw/neu414.Y2F9] | 7.62
AYSLTLQGF [Her2/neu.440.F9] | 7.28
AYSLTLQGL [Her2/neu.440] | 7.04
CYGLGMEHF [Her2/neu.342.F9] | 6.79
LYISAWPDSF [Her2/neu,410.F10] | 8.00
LYISAWPDSL [Her2/neu.410] | 6.84
TYLPTNASF [Her2/neu.63.F9] | 7.36

Each molecule was assayed against DRB1*0401 (DR4w4) (Homo sapiens, UniProt P01903+P01911, A100K/A169T/F76Y/I96L/K127E/L162R/M171V/N62H/P40V/Q125Y/R42H/S133A/S149N/S66Y/V115G/V209L/W38E) (assay: HLA class II binding assay, purified HLA molecules). Settings: Her2/neu DR supertype primary binding, Table XXVIII.

Molecule | pIC50
CC[C@H](C)[C@H](NC(=O)[C@H](CCC(=O)O)NC(=O)[C@@H](N)CCCCN)C(=O)N[C@@H](CC(C)C)C(=O)N[C@@H](CC(=O)O)C(=O)N[C@@H](CCC(=O)O)C(=O)N[C@@H](C)C(=O)N[C@@H](Cc1ccc(O)cc1)C(=O)N[C@H](C(=O)N[C@@H](CCSC)C(=O)N[C@@H](C)C(=O)NCC(=O)N[C@H](C(=O)NCC(=O)N[C@@H](CO)C(=O)O)C(C)C)C(C)C [Her2/neu.765] | 5.21
CC[C@H](C)[C@H](NC(=O)[C@H](CCSC)NC(=O)[C@H](Cc1c[nH]c2ccccc12)NC(=O)[C@H](CS)NC(=O)[C@H](CCCCN)NC(=O)[C@@H](NC(=O)[C@H](CCSC)NC(=O)[C@@H](NC(=O)[C@H](CCSC)NC(=O)[C@H](Cc1ccc(O)cc1)NC(=O)[C@@H](NC(=O)[C@@H](N)CC(=O)O)C(C)C)[C@@H](C)CC)C(C)C)C(=O)N[C@@H](CC(=O)O)C(=O)N[C@@H](CO)C(=O)N[C@@H](CCC(=O)O)C(=O)O [Her2/neu.950] | 6.10
